According to patent publication US20260091065A1, “VIABLE LYOPHILIZED COMPOSITIONS DERIVED FROM HUMAN TISSUES AND METHODS OF MAKING THE SAME” (OSIRIS THERAPEUTICS, INC., priority 2016, published 2026):

How the values were obtained:
[1] = tested on: chorionic stromal cells in suspension; assay: Uptake of FITC-trehalose by chorionic stromal cells in suspension; assay type: cell-based, human; conditions: 4 hours at room temperature
Method: Previous reports of lyophilization of cells in suspension have used trehalose as a lyoprotectant. To confirm that placental cells can uptake trehalose, cells were fully isolated from chorionic membranes and added to a well-plate. To the cell suspension, a commercially available fluorescently tagged trehalose, FITC-trehalose, was added and allowed to incubate for 4 hours at room temperature. Cells were washed multiple times to remove any remaining free FITC-trehalose.

[2] = tested on: stromal cells in the chorionic membrane; assay: Uptake of FITC-trehalose by native cells in fresh chorionic membrane; assay type: cell-based, human; conditions: 2.5 mM FITC-trehalose in 0.5M trehalose, room temperature, 1 hour
Method: (§1) To further investigate the protective mechanism that leads to viable lyophilized placental membrane compositions, fresh amniotic and chorionic membranes were incubated in 2.5 mM FITC-trehalose in a 0.5M trehalose solution at room temperature for 1 hour and then thoroughly washed to remove excess trehalose. […] Longer incubation times with higher concentrations of trehalose at an elevated temperature could increase diffusion of trehalose into these cells and may promote enhanced cell survival following lyophilization.

[3] = tested on: epithelial cells in the amniotic membrane; assay: Uptake of FITC-trehalose by native cells in fresh amniotic membrane; assay type: cell-based, human; conditions: 2.5 mM FITC-trehalose in 0.5M trehalose, room temperature, 1 hour
Method: as §1

[4] = tested on: chondrocytes embedded in bovine cartilage matrix; assay: Uptake of FITC-trehalose by chondrocytes embedded in bovine cartilage matrix; assay type: cell-based; conditions: intact bovine cartilage, 4 hours
Method: The same lyophilization methods effective for placental membrane and skin allograft compositions were used for cartilage graft compositions. First, intact pieces of bovine cartilage were incubated with FITC-trehalose for 4 hours and washed thoroughly to remove excess trehalose. […] Intact bovine cartilage, intact bovine cartilage with 1 mm pores, and micronized bovine cartilage were soaked in a trehalose solution for 4 hours at 37 C with agitation prior to lyophilization in the same trehalose solution.

- uptake of trehalose [1]: uptake trehalose at low levels
- uptake of trehalose [2]: readily uptake trehalose
- uptake of trehalose [3]: readily uptake trehalose
Substance: FITC-trehalose
- uptake of trehalose [4]: some trehalose can be taken up by chondrocytes
